From PubChem BioAssay AID1963425 (Molecular Pharmacology Branch, DTP, NCI, 2024)

Test system: 323965-272-R-J2-PDC complex spheroid growth, % test/control
Test: Anticancer human tumor 323965-272-R-J2-PDC patient-derived pancreatic carcinoma cell line growth inhibition [Asc]
Details: for IC50: curve of first compound; for viability, T/C: stronger effect = lower value
Outline: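 Spheroid model: tumor line + HUVEC + hMSC. Single agents and combinations; top conc. at/near clinical Cmax (10 microM if undetermined), half-log dilutions. DMSO stocks at 800-fold test concentration.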

[1] = second compound 0.00949 µM, first compound 0.0316 µM
[2] = second compound 0.00949 µM, first compound 0.1 µM
[3] = second compound 0.03 µM, first compound 0.0316 µM
[4] = second compound 0.03 µM, first compound 0.1 µM
[5] = second compound 0.0949 µM, first compound 0.0316 µM
[6] = second compound 0.0949 µM, first compound 0.1 µM
[7] = second compound 0.3 µM, first compound 0.0316 µM
[8] = second compound 0.3 µM, first compound 0.1 µM
[9] = second compound 0.949 µM, first compound 0.0316 µM
[10] = second compound 0.949 µM, first compound 0.1 µM
[11] = second compound 3 µM, first compound 0.0316 µM
[12] = second compound 3 µM, first compound 0.1 µM
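Further: compound exposure lasted 7 days starting three days after spheroid seeding.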
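Wherever viability, T/C is given: 100% = DMSO vehicle control wells with viability set relative to vehicle.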

For `C#Cc1c(F)ccc2cc(O)cc(-c3ncc4c(N5CC6CCC(C5)N6)nc(OCC56CCCN5CC(F)C6)nc4c3F)c12` (stereo unspecified) + Cc1c(S(C)(=O)=O)c(-c2cc(F)cc(N3CCN(c4ccc(NS(=O)(=O)c5ccc(NC(CCN6CCC(C(=O)OCCCP(=O)(O)O)CC6)CSc6ccccc6)c(S(=O)(=O)C(F)(F)F)c5)cc4)CC3)c2)c(-c2ccc(Cl)cc2)n1C(C)C, the IC50 (second compound 0.0316 µM) was > 10 µM, the IC50 (second compound 0.1 µM) was > 10 µM and the IC50 (second compound 0.316 µM) was 8.15 µM. The IC50 (second compound 1 µM) was 6.92 µM, the IC50 (second compound 3.16 µM) was 4.12 µM and the IC50 (second compound 10 µM) was 3.59 µM. It also gave a viability, T/C (second compound 0.0316 µM, first compound 0.0316 µM) of 99.9%, a viability, T/C (second compound 0.0316 µM, first compound 0.1 µM) of 98.2% and a viability, T/C (second compound 0.0316 µM, first compound 0.316 µM) of 109%. It also gave a viability, T/C (second compound 0.0316 µM, first compound 1 µM) of 108%, a viability, T/C (second compound 0.0316 µM, first compound 3.16 µM) of 79.4% and a viability, T/C (second compound 0.0316 µM, first compound 10 µM) of 58.2%. For the same compound, the viability, T/C (second compound 0.1 µM, first compound 0.0316 µM) was 100%, the viability, T/C (second compound 0.1 µM, first compound 0.1 µM) was 111% and the viability, T/C (second compound 0.1 µM, first compound 0.316 µM) was 93.2%. The viability, T/C (second compound 0.1 µM, first compound 1 µM) was 93.2%, the viability, T/C (second compound 0.1 µM, first compound 3.16 µM) was 75.7% and the viability, T/C (second compound 0.1 µM, first compound 10 µM) was 51.4%. It also gave a viability, T/C (second compound 0.316 µM, first compound 0.0316 µM) of 97.8%, a viability, T/C (second compound 0.316 µM, first compound 0.1 µM) of 99.1% and a viability, T/C (second compound 0.316 µM, first compound 0.316 µM) of 98.2%. The viability, T/C (second compound 0.316 µM, first compound 1 µM) was 90.6%, the viability, T/C (second compound 0.316 µM, first compound 3.16 µM) was 73.9% and the viability, T/C (second compound 0.316 µM, first compound 10 µM) was 45%. The viability, T/C (second compound 1 µM, first compound 0.0316 µM) was 87.1%, the viability, T/C (second compound 1 µM, first compound 0.1 µM) was 87.9% and the viability, T/C (second compound 1 µM, first compound 0.316 µM) was 88.4%. It also gave a viability, T/C (second compound 1 µM, first compound 1 µM) of 80.8%, a viability, T/C (second compound 1 µM, first compound 3.16 µM) of 67.9% and a viability, T/C (second compound 1 µM, first compound 10 µM) of 41.5%. It also gave a viability, T/C (second compound 3.16 µM, first compound 0.0316 µM) of 74.6%, a viability, T/C (second compound 3.16 µM, first compound 0.1 µM) of 73.8% and a viability, T/C (second compound 3.16 µM, first compound 0.316 µM) of 80.7%. It also gave a viability, T/C (second compound 3.16 µM, first compound 1 µM) of 76.5%, a viability, T/C (second compound 3.16 µM, first compound 3.16 µM) of 56.2% and a viability, T/C (second compound 3.16 µM, first compound 10 µM) of 29.3%. It also gave a viability, T/C (second compound 10 µM, first compound 0.0316 µM) of 72%, a viability, T/C (second compound 10 µM, first compound 0.1 µM) of 73.6% and a viability, T/C (second compound 10 µM, first compound 0.316 µM) of 59.9%. For the same compound, the viability, T/C (second compound 10 µM, first compound 1 µM) was 72%, the viability, T/C (second compound 10 µM, first compound 3.16 µM) was 50.9% and the viability, T/C (second compound 10 µM, first compound 10 µM) was 24.4%.
For `C=CC(=O)N1CCN(c2nc(=O)n(-c3c(C)ccnc3C(C)C)c3nc(-c4c(O)cccc4F)c(F)cc23)C(C)C1` (stereo unspecified) + CCN1C(C(=O)NC23CCC(C(=O)O)(CC2)CC3)C(c2cccc(Cl)c2F)C2(C(=O)Nc3cc(Cl)ccc32)C12CCCCC2, the IC50 (second compound 0.00949 µM) was > 10 µM, the IC50 (second compound 0.03 µM) was > 10 µM and the IC50 (second compound 0.0949 µM) was > 10 µM. The IC50 (second compound 0.3 µM) was > 10 µM, the IC50 (second compound 0.949 µM) was > 10 µM and the IC50 (second compound 3 µM) was > 10 µM. For the same compound, the viability, T/C [1] was 82%, the viability, T/C [2] was 73.5% and the viability, T/C (second compound 0.00949 µM, first compound 0.316 µM) was 60.5%. For the same compound, the viability, T/C (second compound 0.00949 µM, first compound 1 µM) was 64.8%, the viability, T/C (second compound 0.00949 µM, first compound 3.16 µM) was 68.7% and the viability, T/C (second compound 0.00949 µM, first compound 10 µM) was 59.1%. The viability, T/C [3] was 75.4%, the viability, T/C [4] was 70.1% and the viability, T/C (second compound 0.03 µM, first compound 0.316 µM) was 68.7%. The viability, T/C (second compound 0.03 µM, first compound 1 µM) was 68.7%, the viability, T/C (second compound 0.03 µM, first compound 3.16 µM) was 65.8% and the viability, T/C (second compound 0.03 µM, first compound 10 µM) was 65.6%. The viability, T/C [5] was 80.7%, the viability, T/C [6] was 67.2% and the viability, T/C (second compound 0.0949 µM, first compound 0.316 µM) was 62.8%. The viability, T/C (second compound 0.0949 µM, first compound 1 µM) was 73%, the viability, T/C (second compound 0.0949 µM, first compound 3.16 µM) was 66.2% and the viability, T/C (second compound 0.0949 µM, first compound 10 µM) was 61.8%. For the same compound, the viability, T/C [7] was 75.1%, the viability, T/C [8] was 73.2% and the viability, T/C (second compound 0.3 µM, first compound 0.316 µM) was 65.6%. It also gave a viability, T/C (second compound 0.3 µM, first compound 1 µM) of 60.9%, a viability, T/C (second compound 0.3 µM, first compound 3.16 µM) of 67.7% and a viability, T/C (second compound 0.3 µM, first compound 10 µM) of 63.2%. The viability, T/C [9] was 84.7%, the viability, T/C [10] was 68.3% and the viability, T/C (second compound 0.949 µM, first compound 0.316 µM) was 62.8%. It also gave a viability, T/C (second compound 0.949 µM, first compound 1 µM) of 69.8%, a viability, T/C (second compound 0.949 µM, first compound 3.16 µM) of 73.7% and a viability, T/C (second compound 0.949 µM, first compound 10 µM) of 61.7%. For the same compound, the viability, T/C [11] was 79.3%, the viability, T/C [12] was 71.5% and the viability, T/C (second compound 3 µM, first compound 0.316 µM) was 61%. It also gave a viability, T/C (second compound 3 µM, first compound 1 µM) of 68.1%, a viability, T/C (second compound 3 µM, first compound 3.16 µM) of 65.8% and a viability, T/C (second compound 3 µM, first compound 10 µM) of 58.6%.
`Cn1ncnc1[C@H]1c2n[nH]c(=O)c3cc(F)cc(c23)N[C@@H]1c1ccc(F)cc1` + CCN1C(C(=O)NC23CCC(C(=O)O)(CC2)CC3)C(c2cccc(Cl)c2F)C2(C(=O)Nc3cc(Cl)ccc32)C12CCCCC2 was tested, and the IC50 (second compound 0.00949 µM) was > 0.1 µM, the IC50 (second compound 0.03 µM) was > 0.1 µM and the IC50 (second compound 0.0949 µM) was > 0.1 µM. For the same compound, the IC50 (second compound 0.3 µM) was > 0.1 µM, the IC50 (second compound 0.949 µM) was > 0.1 µM and the IC50 (second compound 3 µM) was > 0.1 µM. For the same compound, the viability, T/C (second compound 0.00949 µM, first compound 0.000316 µM) was 114%, the viability, T/C (second compound 0.00949 µM, first compound 0.001 µM) was 104% and the viability, T/C (second compound 0.00949 µM, first compound 0.00316 µM) was 108%. The viability, T/C (second compound 0.00949 µM, first compound 0.01 µM) was 113%, the viability, T/C [1] was 112% and the viability, T/C [2] was 98.3%. It also gave a viability, T/C (second compound 0.03 µM, first compound 0.000316 µM) of 124%, a viability, T/C (second compound 0.03 µM, first compound 0.001 µM) of 116% and a viability, T/C (second compound 0.03 µM, first compound 0.00316 µM) of 122%. It also gave a viability, T/C (second compound 0.03 µM, first compound 0.01 µM) of 105%, a viability, T/C [3] of 116% and a viability, T/C [4] of 108%. The viability, T/C (second compound 0.0949 µM, first compound 0.000316 µM) was 123%, the viability, T/C (second compound 0.0949 µM, first compound 0.001 µM) was 116% and the viability, T/C (second compound 0.0949 µM, first compound 0.00316 µM) was 104%. It also gave a viability, T/C (second compound 0.0949 µM, first compound 0.01 µM) of 96.6%, a viability, T/C [5] of 103% and a viability, T/C [6] of 102%. The viability, T/C (second compound 0.3 µM, first compound 0.000316 µM) was 115%, the viability, T/C (second compound 0.3 µM, first compound 0.001 µM) was 118% and the viability, T/C (second compound 0.3 µM, first compound 0.00316 µM) was 125%. It also gave a viability, T/C (second compound 0.3 µM, first compound 0.01 µM) of 108%, a viability, T/C [7] of 114% and a viability, T/C [8] of 77.7%. It also gave a viability, T/C (second compound 0.949 µM, first compound 0.000316 µM) of 118%, a viability, T/C (second compound 0.949 µM, first compound 0.001 µM) of 114% and a viability, T/C (second compound 0.949 µM, first compound 0.00316 µM) of 110%. For the same compound, the viability, T/C (second compound 0.949 µM, first compound 0.01 µM) was 113%, the viability, T/C [9] was 117% and the viability, T/C [10] was 93.1%. For the same compound, the viability, T/C (second compound 3 µM, first compound 0.000316 µM) was 118%, the viability, T/C (second compound 3 µM, first compound 0.001 µM) was 109% and the viability, T/C (second compound 3 µM, first compound 0.00316 µM) was 96%. It also gave a viability, T/C (second compound 3 µM, first compound 0.01 µM) of 105%, a viability, T/C [11] of 96.9% and a viability, T/C [12] of 85.8%.
